Data set [1] concerns Plasmodium falciparum. Nature of the data set: Antimalarial activity against synchronous ring stage Plasmodium falciparum 3D7 infected in human Erythrocyte assessed as inhibition of parasite growth incubated for 48 hrs by [3H]-hypoxanthine incorporation assay. It is filed as functional, organism-based. The conditions noted are these: 3D7, Erythrocyte.
Data set [2] has as its system Plasmodium falciparum. Nature of the data set: Antimalarial activity against synchronous ring stage Plasmodium falciparum 3D7 infected in human Erythrocyte assessed as inhibition of parasite growth incubated for 96 hrs by [3H]-hypoxanthine incorporation assay. It is filed as functional, organism-based. The note with it: 3D7, Erythrocyte.
A short description of data set [3]: Selectivity ratio of IC50 for antimalarial activity against synchronous ring stage Plasmodium falciparum 3D7 infected in human Erythrocyte assessed as inhibition of parasite growth incubated for 48 hrs by [3H]-hypoxanthine incorporation assay to IC50 for antimalarial activity against synchronous ring stage Plasmodium falciparum 3D7 infected in human Erythrocyte assessed as inhibition of parasite growth incubated for 48 hrs by [3H]-hypoxanthine incorporation assay. It is filed as functional.

The nature of data set [4]: Cytotoxicity against human NFF cells assessed as reduction in cell viability incubated for 72 hrs by SRB assay. It is filed as toxicity, cell-based. A general note: In SRB staining, fixed cells bind dye roughly in proportion to their protein.
A short description of data set [5]: Selectivity index, ratio of IC50 for cytotoxicity against human NFF cells to IC50 for antimalarial activity against synchronous ring stage Plasmodium falciparum 3D7 infected in human Erythrocyte assessed as inhibition of parasite growth incubated for 96 hrs. It is filed as toxicity, cell-based. The note with it: read-out: Ratio IC50.
A short description of data set [6]: Apparent half life in non fasted female BALB/c mouse at 100 mg/kg, po via gavage and measured upto 24 hrs by LC-MS analysis. It is filed as ADME, organism-based. The note with it: in vivo, read-out: t1/2(app) (converted).
Data set [7] can be described thus: Cmax in non fasted female BALB/c mouse plasma at 100 mg/kg, po via gavage and measured upto 24 hrs by LC-MS analysis. It is filed as ADME, organism-based.
Data set [8] can be described thus: Tmax in non fasted female BALB/c mouse at 100 mg/kg, po via gavage and measured upto 24 hrs by LC-MS analysis. It is filed as ADME, organism-based. The note with it: in vivo.
Data set [9] in a line: AUC (0 to t) in non fasted female BALB/c mouse plasma at 100 mg/kg, po via gavage and measured after 7.5 hrs by LC-MS analysis. It is filed as ADME, organism-based.
Data set [10] in a line: AUC (0 to infinity) in non fasted female BALB/c mouse at 100 mg/kg, po via gavage and measured upto 24 hrs by LC-MS analysis. It is filed as ADME, organism-based. The note with it: in vivo.
A short description of data set [11]: Chemical stability of the compound in 1:1 mixture of 6M aqueous hydrochloric acid/THF assessed as degradation measured over 20 hrs. The note with it: buffer. The class given is physicochemical.
Data set [12] concerns Plasmodium berghei. Nature of the data set: Antimalarial activity against Plasmodium berghei ANKA infected in female BALB/c mouse model assessed as reduction in parasitemia at 10 mg/kg, po qd pre-infected for 2 hrs followed by compound addition and measured after 3 days by microscopic analysis. The class given is functional, organism-based. The note with it: time 3.0 day.

The nature of data set [13]: AUC (0 to t) in non fasted female BALB/c mouse plasma at 100 mg/kg, po via gavage and measured after 4 hrs by LC-MS analysis. The class given is ADME, organism-based.
For data set [14], the system named is Plasmodium falciparum. Nature of the data set: Antimalarial activity against multidrug-resistant synchronous ring stage Plasmodium falciparum Dd2 infected in human Erythrocyte assessed as inhibition of parasite growth incubated for 48 hrs by [3H]-hypoxanthine incorporation assay. The class given is functional, organism-based.
For data set [15], the system named is Plasmodium falciparum. Nature of the data set: Antimalarial activity against multidrug-resistant synchronous ring stage Plasmodium falciparum Dd2 infected in human Erythrocyte assessed as inhibition of parasite growth incubated for 96 hrs by [3H]-hypoxanthine incorporation assay. It is filed as functional, organism-based.
Data set [16] is described as follows: Selectivity ratio of IC50 for antimalarial activity against multidrug-resistant synchronous ring stage Plasmodium falciparum Dd2 infected in human Erythrocyte assessed as inhibition of parasite growth incubated for 48 hrs by [3H]-hypoxanthine incorporation assay to IC50 for antimalarial activity against multidrug-resistant synchronous ring stage Plasmodium falciparum Dd2 infected in human …. The class given is functional.

In data set [17] the test system is Plasmodium falciparum. Nature of the data set: Resistance index, ratio of IC50 for antimalarial activity against multidrug-resistant synchronous ring stage Plasmodium falciparum Dd2 infected in human Erythrocyte assessed as inhibition of parasite growth incubated for 96 hrs by [3H]-hypoxanthine incorporation assay to IC50 for antimalarial activity against synchronous ring stage Plasmodium falciparum 3D7 infected in human Erythrocyte assessed …. The class given is toxicity, organism-based.

The test system of data set [18] is Plasmodium falciparum. Nature of the data set: Antimalarial activity against synchronous ring stage Plasmodium falciparum 3D7 infected in human Erythrocyte assessed as inhibition of parasite growth incubated for 96 hrs supplemented with IPP by [3H]-hypoxanthine incorporation assay. The class given is functional, organism-based. The note with it: 3D7, Erythrocyte.

A short description of data set [19]: Selectivity ratio of IC50 for antimalarial activity against synchronous ring stage Plasmodium falciparum 3D7 infected in human Erythrocyte assessed as inhibition of parasite growth incubated for 96 hrs supplemented with IPP by [3H]-hypoxanthine incorporation assay to IC50 for antimalarial activity against synchronous ring stage Plasmodium falciparum 3D7 infected in human Erythrocyte assessed as …. It is filed as functional.

Data set [20] is described as follows: Metabolic stability in human liver microsomes assessed as half life. It is filed as ADME, Microsome.
A short description of data set [21]: Metabolic stability in mouse liver microsomes assessed as half life. The class given is ADME, Microsome.
The nature of data set [22]: Apparent permeability of the compound in human Caco-2 cells across apical to basolateral side. It is filed as ADME, cell-based.
The nature of data set [23]: Toxicity in female BALB/c mouse assessed as adverse clinical effect at 116 mg/kg, po via gavage administered once for 3 days. It is filed as organism-based. The note with it: in vivo, 72 h, time 3 day.
Data set [24] can be described thus: Toxicity in female BALB/c mouse assessed as appearance of ruffled coats in animal at 116 mg/kg, po via gavage administered once daily for 3 days. The class given is organism-based. The conditions noted are these: in vivo, 72 h, time 3 day.
Data set [25] is described as follows: Toxicity in female BALB/c mouse assessed as effect on liver at 116 mg/kg, po via gavage administered once daily for 3 days. It is filed as organism-based. The conditions noted are these: in vivo, 72 h, time 3 day.
A short description of data set [26]: Toxicity in female BALB/c mouse assessed as effect on kidney at 116 mg/kg, po via gavage administered once daily for 3 days. The note with it: in vivo, 72 h, time 3 day. The class given is organism-based.
The nature of data set [27]: Toxicity in female BALB/c mouse assessed as adverse clinical effect at 116 mg/kg, po via gavage administered twice for 3 days. The class given is organism-based. The conditions noted are these: in vivo, 72 h, time 3 day.
Data set [28] is described as follows: Toxicity in female BALB/c mouse assessed as appearance of ruffled coats in animal at 116 mg/kg, po via gavage administered twice daily for 3 days. The conditions noted are these: in vivo, 72 h, time 3 day. The class given is organism-based.
The nature of data set [29]: Toxicity in female BALB/c mouse assessed as effect on liver at 116 mg/kg, po via gavage administered twice daily for 3 days. It is filed as organism-based. The conditions noted are these: in vivo, 72 h, time 3 day.
Data set [30] in a line: Toxicity in female BALB/c mouse assessed as effect on kidney at 116 mg/kg, po via gavage administered twice daily for 3 days. It is filed as organism-based. The conditions noted are these: in vivo, 72 h, time 3 day.
For data set [31], the system named is Plasmodium berghei. Nature of the data set: Antimalarial activity against Plasmodium berghei ANKA infected in female BALB/c mouse model assessed as reduction in parasitemia at 100 mg/kg, po qd pre-infected for 2 hrs followed by compound addition and measured after 3 days by microscopic analysis. The class given is functional, organism-based. The note with it: time 3.0 day.

The subject of data set [32] is Plasmodium berghei. Nature of the data set: Antimalarial activity against Plasmodium berghei ANKA infected in female BALB/c mouse model assessed as reduction in parasitemia at 100 mg/kg, po bid pre-infected for 2 hrs followed by compound addition and measured after 3 days by microscopic analysis. It is filed as functional, organism-based. The note with it: time 3.0 day.

A short description of data set [33]: Chemical stability of the compound in aqueous buffer/THF assessed as degradation measured over 24 hrs. The class given is physicochemical.
Data set [34] in a line: Plasma concentration in female BALB/c mouse at 100 mg/kg, po measured after 7.5 hrs. The note with it: in vivo, BLD = below limit of detection. The class given is ADME, organism-based.

Activity calls are given as the source filed them. The calls are words filed in the database; no cut-off is given here. A value given as a limit tells only on which side of the number the result lay.

What is called IC50 is the concentration at which inhibition is half-maximal. For orientation: Cmax means the maximum level reached in the sampled fluid or tissue. In general, Tmax refers to the time at which the peak concentration occurs. One may read the AUC(0-t) as exposure summed from dosing to a finite time, without extrapolation to infinity. Low values mean low exposure, high ones high exposure. By AUC(0-inf) is commonly meant total exposure, with the tail of the curve extrapolated. The low end stands for less exposure, the high end for more exposure. Regarding `C[C@@H]1CCC[C@H](C)N1c1nnc(S(=O)(=O)C2CCCCC2)o1`, the IC50 in data set [1] was above 12500 nM; in data set [2], 80 nM. In addition, the “Ratio IC50” value in [3] was above 165. Also, the 50% inhibitory concentration (IC50) at 72 h in data set [4] was above 100000 nM. Moreover, in data set [5], the selectivity ratio at 96 h was above 1670. Further, in [6], the half-life was 96 min. The molecule also returned a Cmax in data set [7] of 310 nM. Further, in [8], the time of peak concentration (Tmax) was found to be 30 min. This molecule also registered an AUC(0-t) at 7.5 h in data set [9] of 0.39 µM·h. The molecule further yielded a total exposure AUC(0-inf) in [10] of 0.41 µM·h. Besides, the Stability result in data set [11] is “Stable”.
`CCN(CC)CCCC(C)Nc1ccnc2cc(Cl)ccc12` (stereo not drawn) [CHLOROQUINE]: in data set [4], the half-maximal inhibitory concentration (IC50) at 72 h came to 36700 nM. Also, the result in [12] was Active.
`O=S(=O)(CC1CCC1)c1nnc(N2CCOCC2)o1`: the 50% inhibitory concentration (IC50) was above 10000 nM in [1] and 530 nM in [2]. The “Ratio IC50” value in [3] is given as above 19. The concentration for half-maximal inhibition (IC50) at 72 h in data set [4] is above 100000 nM. In data set [5], the selectivity ratio at 96 h is above 186. In addition, the half-life in data set [6] is 57 min. The molecule also had a Cmax in data set [7] of 2140 nM. Also, the Tmax in [8] was 15 min. Besides, the AUC(0-t) at 4 h in data set [13] amounted to 3.61 µM·h. In addition, the area under the curve AUC(0-inf) in [10] was found to be 3.91 µM·h.
One may read the Papp A→B as the apparent permeability from the apical to the basolateral side of a cell layer. On to `O=S(=O)(c1nnc(N2CCOCC2)o1)C1CCCCC1`, for which the IC50 in data set [1] is above 50000 nM; in data set [2] it was 550 nM; in data set [14], above 25000 nM; in data set [15], 500 nM; in data set [18] it was 1790 nM. The “Ratio IC50” value in data set [3] is on record as above 91; in data set [16] it was above 50; in [17] it was 1; in data set [19], 3. In addition, the IC50 at 72 h in data set [4] is above 100000 nM. Moreover, the selectivity ratio at 96 h in [5] was above 182. In addition, the half-life in data set [20] is above 255 min; in data set [21], 99 min. In addition, the Papp A→B in [22] was found to be 86 ×10⁻⁶ cm/s. Also, the Cmax in data set [7] is 7610 nM. In addition, the Tmax in [8] came out at 15 min. This molecule also gave an AUC(0-t) at 7.5 h in [9] of 11.5 µM·h. In addition, the Activity result in data set [23] was “Non-Toxic”; in [24], “Toxic”; in data set [25], “Non-Toxic”; in data set [26], “Non-Toxic”; in [27], “Non-Toxic”; in data set [28], “Toxic”. The Activity result in data set [29] and in data set [30] was “Non-Toxic” throughout. The outcome in data set [31] and in data set [32] was Active. The Stability entry in data set [33] is “Stable”; in [11] it was “Unstable”. The Cp result in data set [34] is on record as “Bld”.

The values are drawn from ChEMBL document CHEMBL5614431, “Discovery of 1,3,4-oxadiazoles with slow-action activity against Plasmodium falciparum malaria parasites” (Eur J Med Chem, 2024).
